Results published in EP0824862A1, “Dihaloformaldoxime carbamates as antimicrobial agents” (ROHM AND HAAS COMPANY, priority 1996, dated 1998).
Values after ≈ are worked out from the molar mass of the structure shown.

Tests used:
Assay type in all cases: cell-based
Aspergillus niger = assay: Minimum Inhibitory Concentration (MIC) test, two fold serial dilutions; details: Trypticase Soy Broth (TSB); unit assumed
Description: (§1) The spectrum of antimicrobial activity and the effect of anionic surfactant on the antimicrobial activity of the antimicrobial agents useful in the present invention were determined in Minimum Inhibitory Concentration (MIC) tests. MICs were determined by two fold serial dilutions of a compound in Minimal Salts Media (M9G), Trypticase Soy Broth (TSB) or Tryticase Soy Broth and anionic surfactant (TSBA). The compounds were tested against Aspergillus niger, Rhodotorula rubra, Escherichia coli and Pseudomonas aeruginosa. Results of the MIC tests are shown below.

Escherichia coli = assay: as above; details: unit assumed; for MIC E.Coli M9G: Minimal Salts Media (M9G); for MIC E. Coli TSB: Trypticase Soy Broth (TSB); for MIC E. coli TSBA: Trypticase Soy Broth and anionic surfactant (TSBA)
Description: as §1

Pseudomonas aeruginosa = assay: as above; details: Trypticase Soy Broth (TSB); unit assumed
Description: as §1

Rhodotorula rubra = assay: as above; details: Trypticase Soy Broth (TSB); unit assumed
Description: as §1

[1] = tested on: Pseudomonas aeruginosa, Klebsiella pneumonia, Enterobacter aerogenes; assay: Speed of kill test in synthetic cooling water; details: mixed culture 1:1:1, 10^6 cells per mL, concentration giving at least a two log reduction

Compound	MIC A. niger TSB (Aspergillus niger)	MIC E.Coli M9G (Escherichia coli)	MIC E. Coli TSB (Escherichia coli)	MIC E. coli TSBA (Escherichia coli)	MIC P. aeruginosa TSB (Pseudomonas aeruginosa)	MIC R. Rubra TSB (Rhodotorula rubra)	Effective Concentration 4 Hours [1]	Effective Concentration 24 Hours [1]
O=C(Nc1ccc(Cl)cc1)ON=C(Br)Br [Compound 3, N-(4-chlorophenyl)-dibromoformaldoxime carbamate]	> 50 µg/mL	< 4 µg/mL	63 µg/mL (≈ 177 µM)	63 µg/mL (≈ 177 µM)	63 µg/mL (≈ 177 µM)	> 50 µg/mL	8 ppm	<4 ppm
CCCCNC(=O)ON=C(Br)Br [Compound 6, N-(n-butyl)-dibromoformaldoxime carbamate]	> 50 µg/mL	< 4 µg/mL	250 µg/mL (≈ 828 µM)	63 µg/mL (≈ 209 µM)	63 µg/mL (≈ 209 µM)	> 50 µg/mL	16 ppm	16 ppm
CCCCCCCCNC(=O)ON=C(Br)Br [Compound 7, N-(n-octyl)-dibromoformaldoxime carbamate]	50 µg/mL (≈ 140 µM)	< 4 µg/mL	63 µg/mL (≈ 176 µM)	125 µg/mL (≈ 349 µM)	> 500 µg/mL	12.5 µg/mL (≈ 34.9 µM)	–	–
CCCCCCNC(=O)ON=C(Br)Br [Compound 8, N-(n-hexyl)-dibromoformaldoxime carbamate]	> 50 µg/mL	< 4 µg/mL	63 µg/mL (≈ 191 µM)	32 µg/mL (≈ 97 µM)	125 µg/mL (≈ 379 µM)	25 µg/mL (≈ 75.8 µM)	<4 ppm	<4 ppm
Cc1ccc(NC(=O)ON=C(Br)Br)cc1 [Compound 9, N-(4-methylphenyl)-dibromoformaldoxime carbamate]	< 0.8 µg/mL	< 4 µg/mL	32 µg/mL (≈ 95.2 µM)	32 µg/mL (≈ 95.2 µM)	16 µg/mL (≈ 47.6 µM)	3.2 µg/mL (≈ 9.52 µM)	125 ppm	8 ppm
